Values quoted from earlier work in patent US11813301B2, “Topical composition with active compounds from Cannabis sativa and Calendula officinalis for reduction of skin lesions” (UAB Satimed, priority 2016, dated 2023).

Test system: keratinocyte proliferation
Conditions: cannabinoid receptor-independent manner

Structure (SMILES)	inhibition of keratinocyte proliferation
C=C(C)[C@@H]1CCC(C)=C[C@H]1c1c(O)cc(CCCCC)cc1O [CBD, Cannabidiol]	low micromolar range
CCCCCc1cc(O)c2c(c1)OC(C)(C)c1ccc(C)cc1-2 [CBN, Cannabinol]	low micromolar range
CCCCCc1cc(O)c2c(c1)OC(C)(C)[C@@H]1CCC(C)=C[C@@H]21 [Preparation D9-THC, Δ9-tetrahydrocannabinol]	low micromolar range
